Source: article PMC4522657, “Identification of a DYRK1A Inhibitor that Induces Degradation of the Target Kinase using Co-chaperone CDC37 fused with Luciferase nanoKAZ” (Scientific Reports, 2015)
pEC50: −log10 of the molar value.

Experiments:
FGFR4(V550L) = target: T1, FGFR4(V550L) (Homo sapiens, UniProt P22455, V550L); assay: Kinase panel, CaNDY 1 µM; assay type: biochemical; conditions: CaNDY 1 µM relative to DMSO
T1 construct: purchased Carna Biosciences

PYK2 = target: T2, PYK2 (Homo sapiens, UniProt Q14289); assay: Kinase panel, CaNDY 1 µM; assay type: biochemical; conditions: CaNDY 1 µM relative to DMSO
T2 construct: purchased Carna Biosciences

ROS = target: T3, ROS (Homo sapiens, UniProt P08922); assay: Kinase panel, CaNDY 1 µM; assay type: biochemical; conditions: CaNDY 1 µM relative to DMSO
T3 construct: purchased Carna Biosciences
T3 sequence (P08922 28-2347): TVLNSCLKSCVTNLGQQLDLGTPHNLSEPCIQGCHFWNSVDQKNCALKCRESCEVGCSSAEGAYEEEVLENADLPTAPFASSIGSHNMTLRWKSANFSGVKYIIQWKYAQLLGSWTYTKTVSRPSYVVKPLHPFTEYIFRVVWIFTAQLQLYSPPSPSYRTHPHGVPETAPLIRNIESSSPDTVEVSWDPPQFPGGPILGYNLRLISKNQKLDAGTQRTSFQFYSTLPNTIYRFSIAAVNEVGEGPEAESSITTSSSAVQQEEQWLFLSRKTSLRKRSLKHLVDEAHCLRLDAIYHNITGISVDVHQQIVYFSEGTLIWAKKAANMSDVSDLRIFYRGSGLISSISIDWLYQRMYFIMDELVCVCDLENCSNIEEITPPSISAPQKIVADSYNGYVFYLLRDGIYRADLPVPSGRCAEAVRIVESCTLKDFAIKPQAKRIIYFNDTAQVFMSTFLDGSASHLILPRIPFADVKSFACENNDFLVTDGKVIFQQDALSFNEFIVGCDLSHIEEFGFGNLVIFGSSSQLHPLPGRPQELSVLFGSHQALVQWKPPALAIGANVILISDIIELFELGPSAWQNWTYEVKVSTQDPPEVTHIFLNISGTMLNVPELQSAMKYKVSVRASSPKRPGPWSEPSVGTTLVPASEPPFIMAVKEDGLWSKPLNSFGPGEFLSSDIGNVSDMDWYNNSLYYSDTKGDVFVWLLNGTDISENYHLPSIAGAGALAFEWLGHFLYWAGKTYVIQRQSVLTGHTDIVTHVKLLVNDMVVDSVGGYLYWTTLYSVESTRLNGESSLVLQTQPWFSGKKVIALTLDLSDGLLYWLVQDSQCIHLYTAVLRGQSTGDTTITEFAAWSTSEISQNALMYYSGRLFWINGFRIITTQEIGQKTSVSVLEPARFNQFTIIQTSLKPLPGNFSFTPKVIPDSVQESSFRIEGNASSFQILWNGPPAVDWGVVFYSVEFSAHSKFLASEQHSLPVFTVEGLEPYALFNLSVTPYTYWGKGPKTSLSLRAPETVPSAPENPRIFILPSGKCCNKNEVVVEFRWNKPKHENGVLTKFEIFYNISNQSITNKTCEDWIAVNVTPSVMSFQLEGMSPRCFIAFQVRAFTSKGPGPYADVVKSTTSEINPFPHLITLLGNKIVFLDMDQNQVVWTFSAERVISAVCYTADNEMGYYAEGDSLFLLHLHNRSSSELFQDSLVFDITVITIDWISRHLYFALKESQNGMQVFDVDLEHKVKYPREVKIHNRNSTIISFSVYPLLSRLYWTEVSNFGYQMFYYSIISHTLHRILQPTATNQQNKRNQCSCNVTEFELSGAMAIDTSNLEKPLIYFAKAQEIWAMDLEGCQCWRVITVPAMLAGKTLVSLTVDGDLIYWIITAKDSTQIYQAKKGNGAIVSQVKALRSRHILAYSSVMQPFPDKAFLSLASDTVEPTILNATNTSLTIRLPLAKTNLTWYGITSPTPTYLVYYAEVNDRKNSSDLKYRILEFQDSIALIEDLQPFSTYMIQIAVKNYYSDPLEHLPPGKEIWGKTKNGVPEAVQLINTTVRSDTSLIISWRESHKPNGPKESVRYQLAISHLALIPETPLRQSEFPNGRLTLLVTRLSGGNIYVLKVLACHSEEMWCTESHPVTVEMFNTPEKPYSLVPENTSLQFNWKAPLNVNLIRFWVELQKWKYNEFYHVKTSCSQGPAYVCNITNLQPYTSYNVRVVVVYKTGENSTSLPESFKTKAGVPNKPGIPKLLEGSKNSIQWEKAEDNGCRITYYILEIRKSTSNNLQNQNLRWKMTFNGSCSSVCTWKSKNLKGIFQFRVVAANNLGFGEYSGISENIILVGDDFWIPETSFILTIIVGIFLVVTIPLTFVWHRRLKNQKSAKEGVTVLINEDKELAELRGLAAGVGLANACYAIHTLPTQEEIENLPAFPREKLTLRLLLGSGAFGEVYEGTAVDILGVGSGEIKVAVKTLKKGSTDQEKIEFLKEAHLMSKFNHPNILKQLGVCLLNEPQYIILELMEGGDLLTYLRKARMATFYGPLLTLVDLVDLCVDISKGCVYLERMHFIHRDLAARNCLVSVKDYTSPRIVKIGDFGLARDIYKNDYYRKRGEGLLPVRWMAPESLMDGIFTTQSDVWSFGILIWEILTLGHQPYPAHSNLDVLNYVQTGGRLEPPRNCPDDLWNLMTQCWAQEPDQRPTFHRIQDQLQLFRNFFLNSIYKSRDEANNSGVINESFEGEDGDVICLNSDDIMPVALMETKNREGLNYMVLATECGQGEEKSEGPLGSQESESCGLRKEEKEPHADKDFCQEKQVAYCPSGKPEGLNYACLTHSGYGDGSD

MAP2K2_Cascade = target: T4, MAP2K2_Cascade (Homo sapiens, UniProt P36507); assay: Kinase panel, CaNDY 1 µM; assay type: biochemical; conditions: CaNDY 1 µM relative to DMSO
T4 construct: purchased Carna Biosciences
T4 sequence (P36507 whole entry): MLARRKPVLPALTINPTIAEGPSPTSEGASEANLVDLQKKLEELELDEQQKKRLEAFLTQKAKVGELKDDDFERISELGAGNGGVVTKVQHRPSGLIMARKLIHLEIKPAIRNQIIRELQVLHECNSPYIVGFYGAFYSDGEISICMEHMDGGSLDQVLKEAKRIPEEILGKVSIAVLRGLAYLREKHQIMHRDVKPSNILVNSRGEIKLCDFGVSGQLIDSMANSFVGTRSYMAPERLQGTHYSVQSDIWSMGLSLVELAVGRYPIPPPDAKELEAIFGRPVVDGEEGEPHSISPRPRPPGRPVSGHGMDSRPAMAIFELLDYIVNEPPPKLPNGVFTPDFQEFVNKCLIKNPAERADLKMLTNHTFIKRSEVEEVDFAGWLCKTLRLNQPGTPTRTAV

p70S6K = target: T5, p70S6K (Homo sapiens, UniProt P23443); assay: Kinase panel, CaNDY 1 µM; assay type: biochemical; conditions: CaNDY 1 µM relative to DMSO
T5 construct: purchased Carna Biosciences

PDHK4 = target: T6, PDHK4 (Homo sapiens, UniProt Q16654); assay: Kinase panel, CaNDY 1 µM; assay type: biochemical; conditions: CaNDY 1 µM relative to DMSO
T6 construct: purchased Carna Biosciences
T6 sequence (Q16654 whole entry): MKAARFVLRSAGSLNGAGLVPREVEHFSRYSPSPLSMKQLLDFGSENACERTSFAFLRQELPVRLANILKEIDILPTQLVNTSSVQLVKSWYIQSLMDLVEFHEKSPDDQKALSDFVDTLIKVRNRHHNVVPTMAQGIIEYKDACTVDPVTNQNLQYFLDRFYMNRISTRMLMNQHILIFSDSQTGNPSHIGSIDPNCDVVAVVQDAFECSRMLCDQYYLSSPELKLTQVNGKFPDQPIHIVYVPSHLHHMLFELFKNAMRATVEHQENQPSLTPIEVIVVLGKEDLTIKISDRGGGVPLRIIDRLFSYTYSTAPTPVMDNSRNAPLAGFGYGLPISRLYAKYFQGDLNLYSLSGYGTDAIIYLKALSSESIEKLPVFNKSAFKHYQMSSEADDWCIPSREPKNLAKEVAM

RSK1 = target: T7, RSK1 (Homo sapiens, UniProt Q15418); assay: Kinase panel, CaNDY 1 µM; assay type: biochemical; conditions: CaNDY 1 µM relative to DMSO
T7 construct: purchased Carna Biosciences

RSK4 = target: T8, RSK4 (Homo sapiens, UniProt Q9UK32); assay: Kinase panel, CaNDY 1 µM; assay type: biochemical; conditions: CaNDY 1 µM relative to DMSO
T8 construct: purchased Carna Biosciences
T8 sequence (Q9UK32 whole entry): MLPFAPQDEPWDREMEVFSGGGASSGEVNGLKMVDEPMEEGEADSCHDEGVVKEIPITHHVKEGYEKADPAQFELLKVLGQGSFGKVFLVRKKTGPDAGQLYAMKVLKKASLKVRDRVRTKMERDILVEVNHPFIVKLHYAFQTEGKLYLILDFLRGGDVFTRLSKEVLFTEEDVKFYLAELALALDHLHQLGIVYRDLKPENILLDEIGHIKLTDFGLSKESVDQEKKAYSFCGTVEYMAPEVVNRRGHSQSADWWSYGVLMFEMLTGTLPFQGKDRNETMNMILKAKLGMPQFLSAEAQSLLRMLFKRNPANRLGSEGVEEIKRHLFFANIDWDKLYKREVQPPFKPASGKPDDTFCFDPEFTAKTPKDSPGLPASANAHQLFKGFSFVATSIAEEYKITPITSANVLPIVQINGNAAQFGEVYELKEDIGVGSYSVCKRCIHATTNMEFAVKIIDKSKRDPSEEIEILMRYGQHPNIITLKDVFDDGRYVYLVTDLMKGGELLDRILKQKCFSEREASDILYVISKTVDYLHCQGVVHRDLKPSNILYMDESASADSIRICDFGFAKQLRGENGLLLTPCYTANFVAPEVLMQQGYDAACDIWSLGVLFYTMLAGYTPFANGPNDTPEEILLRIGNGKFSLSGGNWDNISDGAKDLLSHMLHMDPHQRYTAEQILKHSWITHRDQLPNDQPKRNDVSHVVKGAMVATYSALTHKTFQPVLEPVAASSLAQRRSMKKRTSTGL

TAOK2 = target: T9, TAOK2 (Homo sapiens, UniProt Q9UL54); assay: Kinase panel, CaNDY 1 µM; assay type: biochemical; conditions: CaNDY 1 µM relative to DMSO
T9 construct: purchased Carna Biosciences

[1] = target: T10, interaction of CDC37-nanoKAZ with 3xFLAG-DYRK1A (Y319F/Y321F) (Homo sapiens, UniProt Q13627, Y319F/Y321F); assay: CDC37-nanoKAZ binding assay (ELISA of the CDC37-nanoKAZ interaction) in 293T cells; assay type: cell-based
T10 construct: F2A peptide linking to EGFP (2A skipping releases EGFP; a 2A remnant may stay on DYRK1A) (C); expressed in transfected cells; host or cells: 293T cells stably expressing CDC37-nanoKAZ, transiently transfected with pcDNA5/FRT/TO 3xFLAG-DYRK1A (Y319F/Y321F)
Method: The cells were then treated with the indicated concentrations of small molecules for one hour. Cell lysates were added to FLAG antibody-coated 96-well plates and luminescence intensities were measured. The amount of bound 3xFLAG-DYRK1A was measured using a HRP-conjugated antibody against FLAG. The relative Imax for CDC37-nanoKAZ was normalized using the amount of bound protein.
Stable cell lines transfected with expression vectors for 3xFLAG-tagged DYRK family kinases and its mutants were lysed in ice-cold HENG buffer (50 mM HEPES-KOH, pH 7.9, 150 mM NaCl, 20 mM Na2MoO4, 2 mM EDTA, 5% Glycerol, 0.5% TritonX-100) containing protease inhibitor cocktail (Nacalai Tesque) on ice. […] The wells were wash three times with ice-cold HENG buffer and then a luminescence assay was performed.
The luminescence activity of the cell lysates was determined using a Centro LB 960 Microplate Luminometer (Berthold Technologies, Bad Wildbad, Germany). A reaction mixture containing bis-coelenterazine (final concentration of 0.1–1 μg/100 μL) in PBS containing 0.02% Tween20 and 20 mM EDTA was injected. The luminescence intensity was recorded at 0.1 s intervals for 10 s or 10 min. The maximum luminescence intensity (Imax), represented in relative luminescence units (rlu), was used in the study.
After measuring the luminescence intensities, the wells were washed three times with HENG buffer, and incubated with HRP-conjugated anti-FLAG antibody diluted with PBS containing […] and 2% fetal bovine serum at 37 °C for one hour. After extensive washing, […] Super Sensitive One Component HRP Microwell Substrate (SurModics, Eden Prairie, MN, USA) was added into the well and the reaction was stopped with sulfuric acid. Absorbance at 450 nm was measured with ARVO X5 (PerkinElmer). The relative amount of protein bound on the well was estimated from the absorbance.
In Supporting Figure S1a, the values of Imax are shown in kinetics plots. In Figs 2c,e, 3c, S1d, S3, and S4, the relative luminescence intensities are shown as the fold-change in the Imax values of the samples relative to Imax with EGFP. In Figs 4, 5a,c and 6c, the relative luminescence intensities were normalized to the amount of the bound 3xFLAG-DYRK1A mutant and calculated as the fold-change relative to the value at 0 μM of the compounds.
Small molecules in our original synthetic chemical library, including unpublished small molecule inhibitors of DYRK1A and its structural derivatives (data not shown), were added to the 96-well plates containing the transfected cells at a final concentration of 4 μM. The cells were then processed as described above.

endogenous DYRK1A = target: T11, endogenous DYRK1A (Homo sapiens, UniProt Q13627); assay: Western blot of endogenous DYRK1A protein in HEK293 cells; assay type: cell-based; conditions: CaNDY 2 μM, 4 days
T11 construct: endogenous in cells; host or cells: HEK293
Method: We investigated whether CaNDY destabilizes DYRK1A as ganetespib does. […] Next we examined whether CaNDY decreased endogenous DYRK1A protein. HEK293 cells were cultured for 0–4 days with CaNDY (2 μM) and then subjected to SDS-PAGE followed by Western blot analysis using antibodies against DYRK1A and GAPDH. […] The treated cells were also subjected to reverse transcription followed by quantitative PCR analysis.
(§1) Western blot analysis was performed using the antibodies described above. In brief, total cell lysates were separated by SDS-PAGE (5–20% gels; ATTO, Tokyo, Japan) under reducing conditions and then transferred to a PVDF membrane (PALL, SP, Brazil). Antibody reactions were performed with Can Get Signal® Immunoreaction Enhancer Solution (Toyobo). Peroxidase activities on the membrane were visualized with ECL Western Blotting Detection Reagents (GE Healthcare) or ImmunoStar® LD (Wako Pure Chemical Industries, Osaka, Japan), and a ChemiDoc^TM MP Imaging System (Bio-Rad, Hercules, CA, USA).

[2] = target: T12, pre-accumulated 3xFLAG-DYRK1A (Homo sapiens, UniProt Q13627); assay: Pre-accumulated DYRK1A after cycloheximide, Western blot in HEK293 cells; assay type: cell-based; conditions: cycloheximide 1 mg/mL pre-treatment, CaNDY 2 µM, 0-24 h
T12 construct: F2A peptide linking to EGFP (2A skipping releases EGFP; a 2A remnant may stay on DYRK1A) (C); expressed in transfected cells; host or cells: HEK293
Method: as §1
Targeting the DYRK1A/CDC37 complex
HEK293 cells were transfected with an expression vector for 3xFLAG-DYRK1A. At 48 h after transfection, the cells were pre-treated with 1 mg/mL cycloheximide (CHX) to stop protein synthesis, and then treated with CaNDY (2 µM) for the indicated time (0-24 h). The total cell lysates were subjected to SDS-PAGE followed by Western blot analysis.
(1 picture or pasted object on this page, not shown here)

other 19 kinases = assay: Western blot of other kinases in HEK293 cells; assay type: cell-based; conditions: CaNDY 2 μM, 4 days
Method: To check selectivity of CaNDY for other kinases, we first examined protein expression of several kinases in HEK293 cells treated with CaNDY (2 μM) for 4 days. […] Third, protein expression of these kinases targeted by CaNDY (DYRK1A, DYRK1B, CLK1, and Haspin) was reassessed by Western blot analysis as performed in Fig. 7b.
as §1

T1 sequence (P22455 22-802 V550L): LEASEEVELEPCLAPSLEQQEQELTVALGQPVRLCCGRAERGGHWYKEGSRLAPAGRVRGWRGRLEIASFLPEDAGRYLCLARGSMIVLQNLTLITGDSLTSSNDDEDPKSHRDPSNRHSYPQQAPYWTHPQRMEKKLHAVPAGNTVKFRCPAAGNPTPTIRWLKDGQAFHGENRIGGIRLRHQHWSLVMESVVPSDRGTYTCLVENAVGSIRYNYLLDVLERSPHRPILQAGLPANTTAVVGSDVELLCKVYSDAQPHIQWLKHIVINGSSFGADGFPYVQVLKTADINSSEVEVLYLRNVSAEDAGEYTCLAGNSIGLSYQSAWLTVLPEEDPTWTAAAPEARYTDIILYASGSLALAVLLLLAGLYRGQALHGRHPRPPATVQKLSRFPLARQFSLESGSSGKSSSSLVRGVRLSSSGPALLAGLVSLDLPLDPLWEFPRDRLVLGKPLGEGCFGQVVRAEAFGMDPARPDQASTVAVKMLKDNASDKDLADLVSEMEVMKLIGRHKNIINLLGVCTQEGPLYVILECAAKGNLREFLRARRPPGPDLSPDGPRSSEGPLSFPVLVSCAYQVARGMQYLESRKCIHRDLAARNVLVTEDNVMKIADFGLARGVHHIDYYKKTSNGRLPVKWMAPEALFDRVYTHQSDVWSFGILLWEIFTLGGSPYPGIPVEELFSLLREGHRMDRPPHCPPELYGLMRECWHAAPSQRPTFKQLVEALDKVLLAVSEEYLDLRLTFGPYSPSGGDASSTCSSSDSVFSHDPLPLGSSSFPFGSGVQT

[H]/N=C1/NC(=O)C(=Cc2ccc3c(c2)CCO3)S1 [CaNDY, (Z)-5-[(2,3-dihydrobenzofuran-5-yl)methylene]-2-iminothiazolidin-4-one]
remaining activity at 1 µM (FGFR4(V550L)): 105% | remaining activity at 1 µM (PYK2): 98.7% | remaining activity at 1 µM (ROS): 103% | remaining activity at 1 µM (MAP2K2_Cascade): 94.7% | remaining activity at 1 µM (p70S6K): 89.7% | remaining activity at 1 µM (PDHK4): 92% | remaining activity at 1 µM (RSK1): 91.2% | %Activity (RSK4): 94.6% | remaining activity at 1 µM (TAOK2): 95.7% | pEC50 ([1]; 293T cells stably expressing CDC37-nanoKAZ, treated one hour, read-out: EC50, decrease of relative luminescence intensity): 6.39 | relative luminescence intensity in library screen ([1]; compounds at 4 μM, 253 compounds): decreased the luminescence intensity to the lowest level | accumulation of endogenous DYRK1A (endogenous DYRK1A): prevented accumulation of endogenous DYRK1A | protein expression of DYRK1A (reassessed) (endogenous DYRK1A; Fig. 7d): decreased expression | pre-accumulated DYRK1A level [2]: did not decrease pre-accumulated DYRK1A | protein expression of other kinases (other 19 kinases): did not decrease the other 19 kinases
